In one data set the target is T1, human amylin receptor (Homo sapiens, UniProt O60896+P30988).
T1 construct: host or cells: CHO-K1/Ga15/AMY3 cells, further stably transfected with a CRE-luciferase plasmid
T1 sequence (P30988 25-474): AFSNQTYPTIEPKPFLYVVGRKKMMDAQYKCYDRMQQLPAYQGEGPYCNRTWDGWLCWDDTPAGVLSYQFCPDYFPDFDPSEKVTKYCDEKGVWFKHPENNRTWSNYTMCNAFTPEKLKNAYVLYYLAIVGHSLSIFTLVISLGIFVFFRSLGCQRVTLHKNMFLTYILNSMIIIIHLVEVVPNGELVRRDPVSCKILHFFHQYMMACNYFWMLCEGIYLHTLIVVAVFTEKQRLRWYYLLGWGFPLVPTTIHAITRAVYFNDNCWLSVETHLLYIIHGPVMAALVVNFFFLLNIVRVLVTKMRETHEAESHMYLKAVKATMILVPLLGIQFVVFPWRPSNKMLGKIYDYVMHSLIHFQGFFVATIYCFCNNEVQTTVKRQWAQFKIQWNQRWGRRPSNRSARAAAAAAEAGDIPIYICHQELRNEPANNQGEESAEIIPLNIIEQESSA
T1 sequence (O60896 24-148 partner): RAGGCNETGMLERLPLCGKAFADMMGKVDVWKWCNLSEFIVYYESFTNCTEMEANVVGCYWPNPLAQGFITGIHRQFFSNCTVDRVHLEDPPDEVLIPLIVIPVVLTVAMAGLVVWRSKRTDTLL
In words: Luciferase assay of amylin derivatives in amylin receptor/CRE-luc CHO cell line. The class given is cell-based. To be noted: CHO-K1/Ga15/AMY3 CRE-luc cells, 24 hours incubation, F12 medium containing 10% FBS; read-out: EC50.

A short description of data set [1]: Freeze-thaw stability of derivatives (freeze-thaw yield by liquid chromatography). The class given is physicochemical. To be noted: for Dissolution property: appearance after dissolution at 0.2 mg/ml in 20 mM phosphate buffer solution (PB) (pH 7.0); for Freeze storage property: appearance after overnight storage at −20° C. and thawing to room temperature, 0.2 mg/ml in 20 mM PB (pH 7.0); for Freeze storage yield: concentration of polypeptide after freezing and thawing / concentration before, by liquid chromatography, −20° C. overnight. In a few lines: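 Freeze-thaw yield is the ratio of peptide concentration after versus before one overnight −20° C freeze and room-temperature thaw, both quantified by RP-HPLC of supernatant after centrifugation. Samples were 0.2 mg/ml freeze-dried derivative in 20 mM PB, pH 7.0.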

Numbered stars: 1 amine (or outer) side, 2 acyl side, 3 side chain; on linkers, the order of the positions; unused ones are H or OH. Bridge positions count the residues as written; N and C are the ends. Square brackets hold non-standard residues; d marks the D form. Side chains are listed from the residue outwards. Peptide text beside a SMILES is read from it. * marks the point of attachment. C20 diacid = O=C(O)CCCCCCCCCCCCCCCCCCC(=O)*; C18 diacid = O=C(O)CCCCCCCCCCCCCCCCC(=O)*; γGlu = O=C(O)[C@H](CCC(=O)[*:2])N[*:1]; Hyp = O=C(O)[C@@H]1C[C@@H](O)CN1; AEEA = NCCOCCOCC(=O)O

Description for human amylin receptor: The experiment was intended to detect the activity or efficacy of the amylin derivatives on a human amylin receptor in vitro by luciferase assay.
50 μL of growth medium (F12 medium containing 10% FBS) was added into each well of a white 96-well plate, and the stably transfected amylin/CRE-lue CHO cells were inoculated into the white 96-well plate at a density of about 20,000 cells/well for activity determination.

`CC[C@H](C)[C@H](NC(=O)[C@H](CCCCNC(=O)COCCOCCNC(=O)CC[C@H](NC(=O)CCCCCCCCCCCCCCCCCCC(=O)O)C(=O)O)NC(=O)CNC(=O)[C@H](CC(C)C)NC(=O)[C@H](CC(N)=O)NC(=O)[C@H](CC(N)=O)NC(=O)[C@H](CO)NC(=O)[C@H](CO)NC(=O)[C@H](Cc1c[nH]cn1)NC(=O)[C@H](CCCNC(=N)N)NC(=O)[C@H](CC(C)C)NC(=O)[C@H](Cc1ccccc1)NC(=O)[C@H](CC(=O)O)NC(=O)[C@H](C)NC(=O)[C@H](CC(C)C)NC(=O)[C@H](CCCNC(=N)N)NC(=O)[C@H](CCC(N)=O)NC(=O)[C@@H](NC(=O)[C@H](C)NC(=O)[C@@H]1CSSC[C@H](NC(=O)[C@@H](N)CCCNC(=N)N)C(=O)N[C@@H](CC(N)=O)C(=O)N[C@@H]([C@@H](C)O)C(=O)N[C@@H](C)C(=O)N[C@@H]([C@@H](C)O)C(=O)N1)[C@@H](C)O)C(=O)N[C@@H](CC(C)C)C(=O)N1CCC[C@H]1C(=O)N1CCC[C@H]1C(=O)N[C@H](C(=O)N[C@@H](CC(N)=O)C(=O)N[C@H](C(=O)NCC(=O)N[C@@H](CO)C(=O)N[C@@H](CC(N)=O)C(=O)N[C@H](C(=O)N1C[C@H](O)C[C@H]1C(N)=O)[C@@H](C)O)C(C)C)[C@@H](C)O` [PD120] (H-RCNTATCATQRLADFLRHSSNNLGK([AEEA-γGlu-C20 diacid])ILPPTNVGSNT[Hyp]-NH2; disulfide 2-7 (inferred); N-terminus assumed): the EC50 at human amylin receptor was 0.023 nM. For the same molecule, in data set [1], the Dissolution property result is reported as “Clear”, the Freeze storage property result is recorded as “Clear” and the Freeze storage yield worked out at 103.41%.
`CC[C@H](C)[C@H](NC(=O)[C@@H]1CCCN1C(=O)CNC(=O)[C@H](CC(C)C)NC(=O)[C@H](CC(N)=O)NC(=O)[C@H](CC(N)=O)NC(=O)[C@H](CCCCNC(=O)COCCOCCNC(=O)CC[C@H](NC(=O)CCCCCCCCCCCCCCCCC(=O)O)C(=O)O)NC(=O)[C@H](CO)NC(=O)[C@H](Cc1c[nH]cn1)NC(=O)[C@H](CCCNC(=N)N)NC(=O)[C@H](CC(C)C)NC(=O)[C@H](Cc1ccccc1)NC(=O)[C@H](CC(=O)O)NC(=O)[C@H](C)NC(=O)[C@H](CC(C)C)NC(=O)[C@H](CCCNC(=N)N)NC(=O)[C@H](CCC(N)=O)NC(=O)[C@@H](NC(=O)[C@H](C)NC(=O)[C@@H]1CSSC[C@H](NC(=O)[C@@H](N)CCCNC(=N)N)C(=O)N[C@@H](CC(N)=O)C(=O)N[C@@H]([C@@H](C)O)C(=O)N[C@@H](C)C(=O)N[C@@H]([C@@H](C)O)C(=O)N1)[C@@H](C)O)C(=O)N[C@@H](CC(C)C)C(=O)N1CCC[C@H]1C(=O)N1CCC[C@H]1C(=O)N[C@H](C(=O)N[C@@H](CC(N)=O)C(=O)N[C@H](C(=O)NCC(=O)N[C@@H](CO)C(=O)N[C@@H](CC(N)=O)C(=O)N[C@H](C(=O)N1C[C@H](O)C[C@H]1C(N)=O)[C@@H](C)O)C(C)C)[C@@H](C)O` [PD117] (H-RCNTATCATQRLADFLRHSK([AEEA-γGlu-C18 diacid])NNLGPILPPTNVGSNT[Hyp]-NH2; disulfide 2-7 (inferred); N-terminus assumed): at human amylin receptor, the EC50 came to 0.014 nM. For the same molecule, in data set [1], the Dissolution property entry was “Clear”, the Freeze storage property result was “Clear” and the Freeze storage yield is reported as 93.49%.

Usually EC50 stands for the concentration at which the effect is half-maximal.

Source of the values: US20260166128A1, “HUMAN AMYLIN ANALOG, AND DERIVATIVE THEREOF AND USE THEREOF” (priority 2022, published 2026).
